Results reported in ChEMBL document CHEMBL1134734, “Introduction of alkynyl chains on C-8 of adenosine led to very selective antagonists of the A(3) adenosine receptor” (Bioorg Med Chem Lett, 2001).

Experiments:
[1] = biological target: T1, Adenosine receptor A2b (Homo sapiens, UniProt P29275); experiment: Antagonistic activity against Adenosine A2B receptor; type: functional
T1 sequence (P29275 whole entry): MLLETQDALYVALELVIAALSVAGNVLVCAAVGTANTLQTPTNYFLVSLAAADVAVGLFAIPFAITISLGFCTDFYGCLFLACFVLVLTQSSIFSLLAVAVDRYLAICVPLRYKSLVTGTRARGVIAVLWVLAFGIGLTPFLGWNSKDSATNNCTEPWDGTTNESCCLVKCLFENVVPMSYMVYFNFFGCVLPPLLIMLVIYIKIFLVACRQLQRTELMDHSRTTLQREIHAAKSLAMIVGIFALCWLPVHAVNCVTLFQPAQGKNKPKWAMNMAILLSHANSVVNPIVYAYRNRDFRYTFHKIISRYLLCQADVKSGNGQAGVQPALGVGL

[2] = biological target: T2, Adenosine receptor A3 (Homo sapiens, UniProt P0DMS8); experiment: [3H]NECA […] binding in CHO cells expressing human Adenosine A3 receptor; type: cell-based
T2 sequence (P0DMS8 whole entry): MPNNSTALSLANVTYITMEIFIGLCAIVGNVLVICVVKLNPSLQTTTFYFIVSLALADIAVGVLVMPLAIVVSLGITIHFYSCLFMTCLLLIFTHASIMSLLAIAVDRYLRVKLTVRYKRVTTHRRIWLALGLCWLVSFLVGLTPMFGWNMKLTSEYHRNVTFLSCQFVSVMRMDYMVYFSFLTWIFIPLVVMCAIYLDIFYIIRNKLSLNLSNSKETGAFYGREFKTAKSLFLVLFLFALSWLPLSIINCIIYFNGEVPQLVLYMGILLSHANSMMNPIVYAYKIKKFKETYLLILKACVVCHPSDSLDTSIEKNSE

[3] = biological target: Adenosine receptor A2a (Homo sapiens, UniProt P29274); experiment: [3H]NECA […] binding in CHO cells expressing human recombinant A2A adenosine receptor; type: cell-based
Adenosine receptor A2a, sequence (P29274 whole entry): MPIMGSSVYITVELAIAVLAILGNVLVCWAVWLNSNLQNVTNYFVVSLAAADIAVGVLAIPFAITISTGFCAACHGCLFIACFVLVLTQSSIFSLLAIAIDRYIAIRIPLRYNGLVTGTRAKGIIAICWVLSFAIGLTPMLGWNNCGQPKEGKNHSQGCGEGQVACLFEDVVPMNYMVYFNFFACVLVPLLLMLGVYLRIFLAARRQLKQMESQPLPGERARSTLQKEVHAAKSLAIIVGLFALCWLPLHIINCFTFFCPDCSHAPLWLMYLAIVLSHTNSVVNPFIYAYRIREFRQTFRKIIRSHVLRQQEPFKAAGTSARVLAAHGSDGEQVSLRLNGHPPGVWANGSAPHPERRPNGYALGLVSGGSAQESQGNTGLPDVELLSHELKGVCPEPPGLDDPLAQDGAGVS

[4] = biological target: T3, Adenosine receptor A1 (Homo sapiens, UniProt P30542); experiment: Displacement of [3H]-CCPA from CHO cells expressing human recombinant Adenosine A1 receptor; type: cell-based
T3 sequence (P30542 whole entry): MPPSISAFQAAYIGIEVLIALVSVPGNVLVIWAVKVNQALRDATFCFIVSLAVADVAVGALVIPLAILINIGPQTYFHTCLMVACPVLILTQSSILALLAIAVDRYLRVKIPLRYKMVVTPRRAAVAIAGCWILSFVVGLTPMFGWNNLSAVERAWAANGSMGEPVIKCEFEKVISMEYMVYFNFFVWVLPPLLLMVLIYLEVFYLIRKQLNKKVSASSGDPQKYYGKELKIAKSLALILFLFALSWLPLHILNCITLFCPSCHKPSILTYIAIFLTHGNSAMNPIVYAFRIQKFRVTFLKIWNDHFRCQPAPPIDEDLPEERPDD

[5] = biological target: T4, Adenosine receptor A3 (Homo sapiens) (UniProt P0DMS8); experiment: Stimulation of [35S]GTP gamma-S binding in CHO cell membranes expressing human A3 receptor at 983 uM; type: functional
T4 sequence (whole entry): T2 sequence (P0DMS8 whole entry)

[6] = biological target: T1, Adenosine receptor A2b; experiment: Receptor stimulated adenylyl cyclase activity in CHO cells expressing human recombinant Adenosine A2B receptor; type: functional, cell-based
[7] = biological target: T4, Adenosine receptor A3 (Homo sapiens); settings: CHO, 1 uM
Description: Inhibition of [35S]GTP gamma-S binding to CHO cell membranes expressing human A3 receptor at 1 uM

[8] = biological target: T4, Adenosine receptor A3 (Homo sapiens); experiment: Stimulation of [35S]GTP gamma-S binding in CHO cell membranes expressing human A3 receptor at 78.8 uM; type: functional

| SMILES | IC50 [1] [µM] | Ki [2] [µM] | Ki [3] [µM] | Ki [4] [µM] | Agonist effect [5] [%] | EC50 [6] [µM] | Agonist effect [7] [%] | Agonist effect [8] [%] |
| --- | --- | --- | --- | --- | --- | --- | --- | --- |
| CCn1c(C#Cc2ccccc2)nc2c(N)ncnc21 | ≥ 100 | 0.086 | 0.6 | – | – | – | – | – |
| Nc1ncnc2c1nc(/C=C/C(=O)c1ccccc1)n2[C@@H]1O[C@H](CO)[C@@H](O)[C@H]1O | – | 9.83 | 46.6 | > 100 | 1.9 | > 100 | – | – |
| CCNC(=O)[C@H]1O[C@@H](n2cnc3c(N)ncnc32)[C@H](O)[C@@H]1O | – | – | – | – | – | – | 100 | – |
| Nc1ncnc2c1nc(C#Cc1ccccc1)n2[C@@H]1O[C@H](CO)C(O)C1O (single isomer, unassigned) | – | 0.79 | > 100 | > 100 | – | > 100 | – | 0.2 |
| CCCCC#Cc1nc2c(N)ncnc2n1[C@@H]1O[C@H](CO)C(O)C1O (single isomer, unassigned) | – | – | > 100 | > 100 | – | > 100 | – | – |
